# What was measured:
# [1] = system: human lymphoma cell line RAMOS cells; experiment: Cell growth inhibition test using RAMOS cell, ATP assay (CellTiter-Glo); type: cell-based; details: cultured 3 days, 50% growth inhibition concentration
# Procedure, shortened: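 RAMOS cells seeded at 4000 cells/well with compound and cultured 3 days at 37° C, 5% CO2; viability by CellTiter-Glo luminescence. Growth rate T/C % = 100×[(B−C)/(A−C)] using day-0 and final readings; GI50 interpolated from the two concentrations bracketing 50% growth.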
# TIP48/TIP49 complex = target: T1, TIP48/TIP49 complex (Homo sapiens, UniProt Q9Y230+Q9Y265); experiment: ATPase assay of TIP48/TIP49 complex (ADP-Glo); type: biochemical; details: concentration at which the ATPase activity was inhibited by 50%
# T1 construct: made in house; host or cells: E. coli
# Procedure, shortened: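 Recombinant human TIP48 and TIP49 expressed in E. coli (24.5 μg/mL final) were incubated 1.5 h at room temperature with compound (0.0007–200 μM, 2% DMSO) in Tris-HCl pH 7.5 buffer containing MgCl2 and ATP. ADP formed was detected by ADP-Glo luminescence; inhibition came from dose-response curves.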
# T1 sequence (Q9Y230 whole entry): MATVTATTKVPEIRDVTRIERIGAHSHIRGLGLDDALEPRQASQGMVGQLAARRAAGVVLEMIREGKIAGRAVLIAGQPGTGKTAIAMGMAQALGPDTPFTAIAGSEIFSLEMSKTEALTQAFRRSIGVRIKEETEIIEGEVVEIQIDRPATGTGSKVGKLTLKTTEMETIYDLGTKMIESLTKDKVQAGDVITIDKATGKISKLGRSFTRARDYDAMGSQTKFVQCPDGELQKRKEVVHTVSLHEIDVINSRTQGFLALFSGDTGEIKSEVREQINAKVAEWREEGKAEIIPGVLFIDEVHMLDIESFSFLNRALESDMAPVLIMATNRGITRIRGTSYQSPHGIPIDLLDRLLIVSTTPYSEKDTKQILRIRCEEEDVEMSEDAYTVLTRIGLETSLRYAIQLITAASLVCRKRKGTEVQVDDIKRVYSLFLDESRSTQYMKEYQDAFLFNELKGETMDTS
# T1 sequence (Q9Y265 whole entry): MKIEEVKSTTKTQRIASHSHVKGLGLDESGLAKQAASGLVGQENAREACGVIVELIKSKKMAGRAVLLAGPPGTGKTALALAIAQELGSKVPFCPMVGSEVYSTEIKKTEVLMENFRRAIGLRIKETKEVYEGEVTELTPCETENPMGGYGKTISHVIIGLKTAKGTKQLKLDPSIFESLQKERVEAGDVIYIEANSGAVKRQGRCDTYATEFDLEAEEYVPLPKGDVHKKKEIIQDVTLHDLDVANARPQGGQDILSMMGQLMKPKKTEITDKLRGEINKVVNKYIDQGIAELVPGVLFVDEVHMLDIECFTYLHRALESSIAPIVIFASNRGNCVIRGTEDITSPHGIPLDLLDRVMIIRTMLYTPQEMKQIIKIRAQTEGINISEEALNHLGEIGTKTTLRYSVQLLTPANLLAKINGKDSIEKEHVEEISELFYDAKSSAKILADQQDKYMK
SMILES,"GI50 ([1]; Homo sapiens, Ramos, 72 h)",IC50 (TIP48/TIP49 complex),GI50 [1]
"CCOc1ncc(Cl)cc1C(=O)NCC(C)(C)CC(=O)Nc1c(C(C)CN(C)C)n(C)n(-c2ccccc2)c1=O (centres unmarked) [Example 71, 5-Chloro-N-[4-({5-[2-(dimethylamino)-1-methylethyl]-1-methyl-3-oxo-2-phenyl-2,3-dihydro-1H-pyrazol-4-yl}amino)-2,2-dimethyl-4-oxobutyl]-2-ethoxypyridine-3-carboxamide]",420 nM,90 nM,
"COCOc1cc(F)c(Cl)cc1C(=O)NCC(C)(C)CC(=O)Nc1c(CCN(C)C)n(C)n(-c2ccccc2)c1=O [Example 29, 5-Chloro-N-[4-({5-[2-(dimethylamino)ethyl]1-methyl-3-oxo-2-phenyl-2,3-dihydro-1H-pyrazol-4-yl}amino)-2,2-dimethyl-4-oxobutyl]-4-fluoro-2-(methoxymethoxy)benzamide]",150 nM,48 nM,
"CCOc1cc(F)c(Cl)cc1C(=O)NCC(C)(C)CC(=O)Nc1c(CCN(C)CC(F)(F)F)n(C)n(-c2ccccc2)c1=O [Example 38, 5-Chloro-N-{2,2-dimethyl-4-[(1-methyl-5-{2-[methyl(2,2,2-trifluoroethyl)amino]ethyl}-3-oxo-2-phenyl-2,3-dihydro-1H-pyrazol-4-yl)amino]-4-oxobutyl}-2-ethoxy-4-fluorobenzamide]",210 nM,77 nM,
"CCOc1ncc(Cl)cc1C(=O)NCC(C)(C)CC(=O)Nc1c(C[C@H](C)N(C)C)n(C)n(-c2ccccc2)c1=O [Example 53, 5-Chloro-N-[4-({5-[(2S)-2-(dimethylamino)propyl]-1-methyl-3-oxo-2-phenyl-2,3-dihydro-1H-pyrazol-4-yl}amino)-2,2-dimethyl-4-oxobutyl]-2-ethoxypyridine-3-carboxamide]",240 nM,63 nM,
"CCOc1ccc(Cl)cc1C(=O)NCC(C)(C)CC(=O)Nc1c(CCCCO)n(C)n(-c2ccccc2)c1=O [Example 130, 5-Chloro-2-ethoxy-N-(4-{[5-(4-hydroxybutyl)-1-methyl-3-oxo-2-phenyl-2,3-dihydro-1H-pyrazol-4-yl]amino}-2,2-dimethyl-4-oxobutyl)benzamide]",64 nM,54 nM,
"[2H]C([2H])([2H])n1c(CCN(C)C)c(NC(=O)CC(C)(C)CNC(=O)c2cc(Br)cnc2OCC)c(=O)n1-c1ccccc1 [Example 44, 5-Bromo-N-[4-({3-[2-(dimethylamino)ethyl]-5-oxo-1-phenyl-2-(trideuteriomethyl)-2,3-dihydro-1H-pyrazol-4-yl}amino)-2,2-dimethyl-4-oxobutyl]-2-ethoxypyridine-3-carboxamide]",470 nM,150 nM,
"CCOc1ccc(Cl)cc1C(=O)NCC(C)(C)CC(=O)Nc1c([C@@H](C)CN(C)C)n(C)n(-c2ccccc2)c1=O [Example 67, 5-Chloro-N-[4-({5-[(1S)-2-(dimethylamino)-1-methylethyl]-1-methyl-3-oxo-2-phenyl-2,3-dihydro-1H-pyrazol-4-yl}amino)-2,2-dimethyl-4-oxobutyl]-2-ethoxybenzamide]",150 nM,36 nM,
"CCOc1cc(F)c(Cl)cc1C(=O)NCC(C)(C)CC(=O)Nc1c(CCNC)n(C)n(-c2ccccc2)c1=O [Example 34, 5-Chloro-N-[2,2-dimethyl-4-({1-methyl-5-[2-(methylamino)ethyl]-3-oxo-2-phenyl-2,3-dihydro-1H-pyrazol-4-yl}amino)-4-oxobutyl]-2-ethoxy-4-fluorobenzamide]",470 nM,56 nM,
"CCOc1ccc(Cl)cc1C(=O)NCC(C)(C)CC(=O)Nc1c(C(C)CN(C)C)n(C)n(-c2ccccc2)c1=O (centres unmarked) [Example 66, 5-Chloro-N-[4-({5-[2-(dimethylamino)-1-methylethyl]-1-methyl-3-oxo-2-phenyl-2,3-dihydro-1H-pyrazol-4-yl}amino)-2,2-dimethyl-4-oxobutyl]-2-ethoxybenzamide]",160 nM,58 nM,
"CCOc1ccc(Cl)cc1C(=O)NCC(C)(C)CC(=O)Nc1c(CCN(C)C)n(C)n(-c2cccc(Cl)n2)c1=O [Example 47, 5-Chloro-N-(4-{[1-(6-chloro-2-pyridyl)-3-(2-dimethylamino)ethyl]-2-methyl-5-oxopyrazol-4-yl}amino-2,2-dimethyl-4-oxobutyl)-2-ethoxybenzamide]",250 nM,37 nM,
"COCOc1cc(Cl)c(Cl)cc1C(=O)NCC(C)(C)CC(=O)Nc1c(C(C)CN(C)C)n(C)n(-c2ccccc2)c1=O (centres unmarked) [Example 75, 4,5-Dichloro-N-[4-({5-[2-(dimethylamino)-1-methylethyl]-1-methyl-3-oxo-2-phenyl-2,3-dihydro-1H-pyrazol-4-yl}amino)-2,2-dimethyl-4-oxobutyl]-2-(methoxymethoxy)benzamide]",270 nM,99 nM,
"CCOc1ccc(Cl)cc1C(=O)NCC(C)(C)CC(=O)Nc1c(C[C@H](C)N(C)C)n(C)n(-c2ccccc2)c1=O [Example 51, 5-Chloro-N-[4-({5-[(2S)-2-(dimethylamino)propyl]-1-methyl-3-oxo-2-phenyl-2,3-dihydro-1H-pyrazol-4-yl}amino)-2,2-dimethyl-4-oxobutyl]-2-ethoxybenzamide]",140 nM,71 nM,
"CCOc1ncc(Cl)cc1C(=O)NCC(C)(C)CC(=O)Nc1c(CCN(C)C)n(CC)n(-c2ccccc2)c1=O [Example 42, 5-Chloro-N-[4-({5-[2-(dimethylamino)ethyl]-1-ethyl-3-oxo-2-phenyl-2,3-dihydro-1H-pyrazol-4-yl}amino)-2,2-dimethyl-4-oxobutyl]-2-ethoxypyridine-3-carboxamide]",150 nM,80 nM,
"CCOc1ncc(Cl)cc1C(=O)NCC(C)(C)CC(=O)Nc1c(C(C)NC)n(C)n(-c2ccccc2)c1=O (single isomer, unassigned; (-)) [Example 86, (−)-5-Chloro-N-[2,2-dimethyl-4-({1-methyl-5-[1-(methylamino)ethyl]-3-oxo-2-phenyl-2,3-dihydro-1H-pyrazol-4-yl}amino)-4-oxobutyl]-2-ethoxypyridine-3-carboxamide]",,90 nM,180 nM
"CCOc1ccc(Cl)cc1C(=O)NCC(C)(C)CC(=O)Nc1c(C(CN(C)C)OC)n(C)n(-c2ccccc2)c1=O (centres unmarked) [Example 79, 5-Chloro-N-[4-({5-[2-(dimethylamino)-1-methoxyethyl]-1-methyl-3-oxo-2-phenyl-2,3-dihydro-1H-pyrazol-4-yl}amino)-2,2-dimethyl-4-oxobutyl]-2-ethoxybenzamide]",140 nM,51 nM,
"CN(C)CCc1c(NC(=O)CC(C)(C)CNC(=O)c2cc(Cl)cc3c2OCCO3)c(=O)n(-c2ccccc2)n1C [Example 16, 7-Chloro-N-[4-({5-[2-(dimethylamino)ethyl]-1-methyl-3-oxo-2-phenyl-2,3-dihydro-1H-pyrazol-4-yl}amino)-2,2-dimethyl-4-oxobutyl]-2,3-dihydro-1,4-benzodioxine-5-carboxamide]",570 nM,68 nM,

# Reference: patent publication US20170107207A1, “AMINOPYRAZOLONE DERIVATIVE” (DAIICHI SANKYO COMPANY, LIMITED, priority 2014, published 2017)
